Measurements taken from US20200270309A1, “MALEIMIDE GROUP-MODIFIED ANGIOGENESIS INHIBITOR HM-1 AND USE THEREOF” (NANJING ANJI BIOLOGICAL TECHNOLOGY CO., LTD, priority 2017, published 2020).
Peptide text beside a SMILES is read from it. * marks the point of attachment. X74 = O=C1C=CC(=O)N1c1cccc(CCCCCCCCCCC(=O)*)c1; X64 = O=C1C=CC(=O)N1c1cccc(CCCCCCCCCC(=O)*)c1; X59 = O=C1C=CC(=O)N1c1cccc(CCCCCCCCC(=O)*)c1; X66 = O=C1C=CC(=O)N1c1cccc(CCCCCCCC(=O)*)c1; X54 = O=C1C=CC(=O)N1c1cccc(CCCCCCC(=O)*)c1; X71 = O=C1C=CC(=O)N1c1cccc(CCCCCC(=O)*)c1

Columns and labels:
[1] = system: choroidal neovascularization; experiment: Choroidal neovascularization in rats (laser photocoagulation, FFA); assay type: in vivo; conditions: BN rats
In short: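 Male BN rats aged 6-8 weeks were given 8 krypton-laser spots around the optic disc (647.1 nm, 350 mW, 50 μm, 0.05 s). Once the model was confirmed, groups of 5 got daily intravitreal compound at 0.05 μM or saline for 1 week. FFA followed at 3, 7, 14 and 28 days after dosing.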

[2] = system: IL-1β production by mouse peritoneal macrophages; experiment: IL-1β production by mouse peritoneal macrophages (ELISA); assay type: cell-based; conditions: for Inhibition rate: IL-1β production, vs model group; for IL-1β: mouse peritoneal macrophages, 48 h, ELISA
In short: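 Starch-elicited (6%, i.p.) mouse peritoneal macrophages, 2×10^6 cells/mL in RPMI 1640, adhered 3 h; non-adherent cells washed off. Polypeptides added at low, medium and high concentrations, Dex as positive control; cultured 48 h, supernatant IL-1β measured.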

HUVECs = experiment: Transwell migration inhibition on HUVECs; assay type: cell-based, human; conditions: for Inhibition rate (%): HUVEC migration vs blank control; for Cell migration number (Mean ± SD): HUVECs, transwell, 24 h
[3] = system: collagen-induced arthritis; experiment: Mouse collagen-induced arthritis (CIA) animal model; assay type: in vivo; conditions: DBA/1 mice CIA model, dose 4.0 mg/kg, subcutaneous from day 30, n=10; for Clinical score: highest score 16
[4] = system: retinal vascular endothelial nuclei; experiment: Neovascularization in a rat model of premature retinopathy; assay type: in vivo, rats; conditions: dose 0.05 μM in the vitreous chamber from day 7 of modeling for one week; counted on day 14; oxygen-induced neonatal rats
In short: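 Newborn rats kept 7 d in chamber alternating 80% and 10% O2 every 24 h (23 °C), then room air. Intravitreal injection of test agents on day 7, saline for model and control; eyes taken day 14, HE-stained 4 μm sections. Endothelial nuclei breaching retinal inner limiting membrane counted, averaged per section per eye (10 sections).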

[5] = day 3 after administration, total light spot number was 297, 0.05 μM in the vitreous chamber once a day for 1 week
[6] = day 7 after administration, total light spot number was 186, 0.05 μM in the vitreous chamber once a day for 1 week
[7] = day 14 after administration, total light spot number was 137, 0.05 μM in the vitreous chamber once a day for 1 week
[8] = day 28 after administration, total light spot number was 69, 0.05 μM in the vitreous chamber once a day for 1 week

| Compound | CNV Incidence (%) [1, 5] | Leakage Light spot number [1, 5] | CNV Incidence (%) [1, 6] | Leakage Light spot number [1, 6] | CNV Incidence (%) [1, 7] | Leakage Light spot number [1, 7] | CNV Incidence (%) [1, 8] | Leakage Light spot number [1, 8] | Inhibition rate ([2]; dose 0.05 μM) | IL-1β ([2]; dose 0.05 μM) | Inhibition rate ([2]; dose 0.1 μM) | IL-1β ([2]; dose 0.1 μM) | Inhibition rate ([2]; dose 0.2 μM) | IL-1β ([2]; dose 0.2 μM) | Inhibition rate (%) (HUVECs; dose 0.05 μM) | Inhibition rate (%) (HUVECs; dose 0.1 μM) | Inhibition rate (%) (HUVECs; dose 0.2 μM) | Joint swelling degree (mm) [3] | Left and right paw swelling degree (mm) [3] | Clinical score [3] | further results |
| --- | --- | --- | --- | --- | --- | --- | --- | --- | --- | --- | --- | --- | --- | --- | --- | --- | --- | --- | --- | --- | --- |
| C[C@H](NC(=O)CNC(=O)[C@H](CCCNC(=N)N)NC(=O)CCCCCc1cccc(N2C(=O)C=CC2=O)c1)C(=O)N[C@@H](CC(=O)O)C(=O)N[C@@H](CCCNC(=N)N)C(=O)N[C@@H](C)C(=O)NCC(=O)NCC(=O)NCC(=O)NCC(=O)N[C@@H](CCCNC(=N)N)C(=O)NCC(=O)N[C@@H](CC(=O)O)C(=O)O [X29] (X71-RGADRAGGGGRGD-OH) | 54.21% | 161 | 45.70% | 85 | 40.88% | 56 | 39.13% | 27 | 16.20% | 788.74 ± 15.39 pg/mL | 21.75% | 736.46 ± 14.72 pg/mL | 40.73% | 557.81 ± 12.11 pg/mL | 46.37% | 50.43% | 53.84% | 0.81 ± 0.15 mm | 0.71 ± 0.13 mm | 8.98 ± 1.44 | Cell migration number (Mean ± SD) (HUVECs; dose 0.05 μM): 574.88 ± 55.42; Cell migration number (Mean ± SD) (HUVECs; dose 0.1 μM): 531.34 ± 47.59; Cell migration number (Mean ± SD) (HUVECs; dose 0.2 μM): 494.73 ± 56.78; Nuclei count (retinal vascular endothelial nuclei, average per section per eyeball) [4]: 9.533 ± 2.225 |
| C[C@H](NC(=O)CNC(=O)[C@H](CCCNC(=N)N)NC(=O)CCCCCCc1cccc(N2C(=O)C=CC2=O)c1)C(=O)N[C@@H](CC(=O)O)C(=O)N[C@@H](CCCNC(=N)N)C(=O)N[C@@H](C)C(=O)NCC(=O)NCC(=O)NCC(=O)NCC(=O)N[C@@H](CCCNC(=N)N)C(=O)NCC(=O)N[C@@H](CC(=O)O)C(=O)O [X30] (X54-RGADRAGGGGRGD-OH) | 51.85% | 154 | 48.92% | 91 | 45.99% | 63 | 40.58% | 28 | 28.30% | 674.82 ± 10.45 pg/mL | 33.96% | 621.53 ± 19.69 pg/mL | 37.33% | 589.79 ± 19.66 pg/mL | 41.12% | 53.55% | 53.58% | 0.83 ± 0.16 mm | 0.79 ± 0.16 mm | 8.73 ± 1.29 | Cell migration number (Mean ± SD) (HUVECs; dose 0.05 μM): 631.10 ± 64.04; Cell migration number (Mean ± SD) (HUVECs; dose 0.1 μM): 497.88 ± 65.38; Cell migration number (Mean ± SD) (HUVECs; dose 0.2 μM): 497.56 ± 68.24; Nuclei count (retinal vascular endothelial nuclei, average per section per eyeball) [4]: 8.256 ± 3.403 |
| C[C@H](NC(=O)CNC(=O)[C@H](CCCNC(=N)N)NC(=O)CCCCCCCc1cccc(N2C(=O)C=CC2=O)c1)C(=O)N[C@@H](CC(=O)O)C(=O)N[C@@H](CCCNC(=N)N)C(=O)N[C@@H](C)C(=O)NCC(=O)NCC(=O)NCC(=O)NCC(=O)N[C@@H](CCCNC(=N)N)C(=O)NCC(=O)N[C@@H](CC(=O)O)C(=O)O [X31] (X66-RGADRAGGGGRGD-OH) | 53.54% | 159 | 46.77% | 87 | 41.61% | 57 | 44.93% | 31 | 15.28% | 797.34 ± 10.46 pg/mL | 18.74% | 764.81 ± 19.08 pg/mL | 23.12% | 723.57 ± 18.58 pg/mL | 40.18% | 46.67% | 55.21% | 0.78 ± 0.15 mm | 0.77 ± 0.15 mm | 8.75 ± 1.38 | Cell migration number (Mean ± SD) (HUVECs; dose 0.05 μM): 641.17 ± 61.85; Cell migration number (Mean ± SD) (HUVECs; dose 0.1 μM): 571.62 ± 42.83; Cell migration number (Mean ± SD) (HUVECs; dose 0.2 μM): 480.05 ± 67.72; Nuclei count (retinal vascular endothelial nuclei, average per section per eyeball) [4]: 7.228 ± 3.184 |
| C[C@H](NC(=O)CNC(=O)[C@H](CCCNC(=N)N)NC(=O)CCCCCCCCc1cccc(N2C(=O)C=CC2=O)c1)C(=O)N[C@@H](CC(=O)O)C(=O)N[C@@H](CCCNC(=N)N)C(=O)N[C@@H](C)C(=O)NCC(=O)NCC(=O)NCC(=O)NCC(=O)N[C@@H](CCCNC(=N)N)C(=O)NCC(=O)N[C@@H](CC(=O)O)C(=O)O [X32] (X59-RGADRAGGGGRGD-OH) | 54.21% | 161 | 46.24% | 86 | 43.07% | 59 | 42.03% | 29 | 18.02% | 771.56 ± 13.41 pg/mL | 28.17% | 676.06 ± 19.82 pg/mL | 43.31% | 533.56 ± 18.54 pg/mL | 41.92% | 47.67% | 56.61% | 0.81 ± 0.16 mm | 0.81 ± 0.13 mm | 9.06 ± 1.26 | Cell migration number (Mean ± SD) (HUVECs; dose 0.05 μM): 622.57 ± 49.41; Cell migration number (Mean ± SD) (HUVECs; dose 0.1 μM): 560.86 ± 50.91; Cell migration number (Mean ± SD) (HUVECs; dose 0.2 μM): 465.06 ± 48.23; Nuclei count (retinal vascular endothelial nuclei, average per section per eyeball) [4]: 8.394 ± 2.665 |
| C[C@H](NC(=O)CNC(=O)[C@H](CCCNC(=N)N)NC(=O)CCCCCCCCCc1cccc(N2C(=O)C=CC2=O)c1)C(=O)N[C@@H](CC(=O)O)C(=O)N[C@@H](CCCNC(=N)N)C(=O)N[C@@H](C)C(=O)NCC(=O)NCC(=O)NCC(=O)NCC(=O)N[C@@H](CCCNC(=N)N)C(=O)NCC(=O)N[C@@H](CC(=O)O)C(=O)O [X33] (X64-RGADRAGGGGRGD-OH) | 54.21% | 161 | 46.24% | 86 | 45.26% | 62 | 37.68% | 26 | 25.68% | 699.41 ± 11.17 pg/mL | 34.80% | 613.62 ± 19.23 pg/mL | 36.96% | 593.32 ± 11.64 pg/mL | 42.63% | 47.45% | 54.20% | 0.82 ± 0.11 mm | 0.74 ± 0.17 mm | 9.08 ± 1.25 | Nuclei count (retinal vascular endothelial nuclei, average per section per eyeball) [4]: 7.654 ± 1.142 |
| C[C@H](NC(=O)CNC(=O)[C@H](CCCNC(=N)N)NC(=O)CCCCCCCCCCc1cccc(N2C(=O)C=CC2=O)c1)C(=O)N[C@@H](CC(=O)O)C(=O)N[C@@H](CCCNC(=N)N)C(=O)N[C@@H](C)C(=O)NCC(=O)NCC(=O)NCC(=O)NCC(=O)N[C@@H](CCCNC(=N)N)C(=O)NCC(=O)N[C@@H](CC(=O)O)C(=O)O [X34] (X74-RGADRAGGGGRGD-OH) | 52.19% | 155 | 47.31% | 88 | 45.99% | 63 | 42.03% | 29 | 18.47% | 767.28 ± 18.52 pg/mL | 19.97% | 753.21 ± 13.97 pg/mL | 28.14% | 676.31 ± 16.02 pg/mL | 47.95% | 52.08% | 53.69% | 0.84 ± 0.13 mm | 0.72 ± 0.15 mm | 8.8 ± 1.34 | Cell migration number (Mean ± SD) (HUVECs; dose 0.05 μM): 557.95 ± 42.69; Cell migration number (Mean ± SD) (HUVECs; dose 0.1 μM): 513.64 ± 43.27; Cell migration number (Mean ± SD) (HUVECs; dose 0.2 μM): 496.39 ± 56.37; Nuclei count (retinal vascular endothelial nuclei, average per section per eyeball) [4]: 7.292 ± 3.827 |
